Reference: patent EP4389749A1, “SUBSTITUTED 3,7-DIHYDRO-1H-PURINE-2,6-DIONES AND USE THEREOF” (invIOs GmbH, priority 2022, dated 2024)
pEC50: −log10 of the molar value. Read-outs that look alike come from different tables or passages of the source.

Key:
[1] = tested on: CD4+ T-cells; assay: Immunostimulation assay with anti-CD3/28 stimulated T-cells, CD69 expression by flow cytometry; assay type: cell-based, human
Procedure: (§1) Selection of potent compounds based on structure activity relation (SAR) using human, anti-CD3/28 stimulated T-cells. Enhanced activation of stimulated T-cells is measured by CD69 expression by flowcytometry.
(§2) White blood cell enriched buffy coats were ordered from the Austrian red cross, diluted with PBS to a total volume of 480 ml, 30 ml transferred to 50ml falcons and 11 ml lymphoprep added. Cell suspensions were centrifuged for 20 min at 2200 rpm and the PBMC containing layer transferred, three times washed with PBS and counted.
(§3) 10^7 PBMCs were magnetically labeled with CD4 and CD8 microbeads according to manufacturer's instructions and separated using autoMACS device. For dose response experiments with purified CD4+CD8+ T-cells 80000 cells were seeded per 96-well flat bottom cell culture dish.
(§4) 10 mM compounds of the invention stocks were further diluted using DMSO and equal amounts transferred to T-cell containing 96-wells. Final concentrations tested were: 30 µM, 10 µM, 3 µM, 1 µM, 0.3 µM, 0.1 µM, 0.03 µM, 0.01 µM, 0.003 µM and 0.001 µM.
(§5) For the stimulation assays 80.000 purified CD4+ and CD8+ T-cells were seeded per 96-well and incubated with 1 µg/ml anti-CD3, 1 µg/ml anti-CD28 and compounds of the invention ranging from 0.001 µM to 30 µM. DMSO only wells served as control to determine minimal T-cell activation upon stimulation and CD3/28 coupled Dynabeads were used to determine the maximal activation of T-cells. Cells were cultured for 16 hours in a humidified incubator at 37 °C and 5 % CO2.
(§6) T-cells were stained for surface antigens (anti-CD4 and anti-CD8) and cell activation markers (anti-CD25 and anti-CD69). Additionally, a fixable viability dye was used to stain viable cells. Staining was performed for 15 minutes and cells analyzed using a Fortessa flow cytometer and FlowJo Software. EC50s were calculated using GraphPad Prism® and a variable slope model (agonist vs. response - variable slope).

[2] = tested on: CD8+ T-cells; assay: as above; assay type: cell-based, human
Procedure: as §1, §2, §3, §4, §5, §6

[3] = T-cell, purified human CD4+ and CD8+ T-cells, 1 µg/ml anti-CD3, 1 µg/ml anti-CD28, 16 hours, surface FACS, read-out: EC50 CD4+
[4] = T-cell, purified human CD4+ and CD8+ T-cells, 1 µg/ml anti-CD3, 1 µg/ml anti-CD28, 16 hours, surface FACS, read-out: EC50 CD8+

Row | SMILES | pEC50 [1, 3] | pEC50 [2, 4] | pEC50 ([1]; 16 h) | pEC50 ([2]; 16 h)
1 | COc1cc(-c2nc3c(c(=O)[nH]c(=O)n3CC(O)C(F)(F)F)n2C)ccc1OCc1ccc(C)cc1 (stereo not shown) [Compound 121, 8-(3-methoxy-4-((4-methylbenzyl)oxy)phenyl)-7-methyl-3-(3,3,3-trifluoro-2-hydroxypropyl)-3,7-dihydro-1H-purine-2,6-dione] | > 7.00 | > 7.00 |  | 
2 | Cn1c(-c2ccc(OCc3ccccc3)c(OC(F)(F)F)c2)nc2c1c(=O)[nH]c(=O)n2CC(O)CO (stereo not shown) [Compound 116, 8-(4-(benzyloxy)-3-(trifluoromethoxy)phenyl)-3-(2,3-dihydroxypropyl)-7-methyl-3,7-dihydro-1H-purine-2,6-dione] | 6.00 to 6.30 | 6.00 to 6.30 |  | 
3 | Cn1c(-c2ccc(Oc3ccc(OC(F)F)cc3)c(Cl)c2)nc2c1c(=O)[nH]c(=O)n2CC(O)CF (stereo not shown) [Compound 148, 8-(3-chloro-4-(4-(difluoromethoxy)phenoxy)phenyl)-3-(3-fluoro-2-hydroxypropyl)-7-methyl-3,7-dihydro-1H-purine-2,6-dione] | 6.30 to 7.00 | 6.30 to 7.00 |  | 
4 | CC(O)Cn1c(=O)[nH]c(=O)c2c1nc(-c1ccc(Oc3cccc(Cl)c3)cc1)n2C (stereo not shown) [Compound 184, 8-(4-(3-chlorophenoxy)phenyl)-3-(2-hydroxypropyl)-7-methyl-3,7-dihydro-1H-purine-2,6-dione] | 5.30 to 6.00 | 5.30 to 6.00 |  | 
5 | COc1cc(-c2nc3c(c(=O)[nH]c(=O)n3CC(O)CO)n2C)ccc1OCc1ccc(C)cc1 (stereo not shown) [Compound 94, 3-(2,3-dihydroxypropyl)-8-(3-methoxy-4-((4-methylbenzyl)oxy)phenyl)-7-methyl-3,7-dihydro-1H-purine-2,6-dione] | 5.30 to 6.00 | 5.30 to 6.00 |  | 
6 | COc1cc(-c2nc3c(c(=O)[nH]c(=O)n3CC(C)O)n2C)ccc1OCc1ccc(OC(F)(F)F)cc1 (stereo not shown) [Compound 82, 3-(2-hydroxypropyl)-8-(3-methoxy-4-((4-(trifluoromethoxy)benzyl)oxy)phenyl)-7-methyl-3,7-dihydro-1H-purine-2,6-dione] | 6.30 to 7.00 | 6.30 to 7.00 |  | 
7 | COc1ccc(COc2ccc(-c3nc4c(c(=O)[nH]c(=O)n4CC(C)O)n3C)cc2OC)cc1F (stereo not shown) [Compound 126, 8-(4-((3-fluoro-4-methoxybenzyl)oxy)-3-methoxyphenyl)-3-(2-hydroxypropyl)-7-methyl-3,7-dihydro-1H-purine-2,6-dione] | 6.00 to 6.30 | 6.30 to 7.00 |  | 
8 | Cc1ccc(COc2ccc(-c3nc4c(c(=O)[nH]c(=O)n4CC(C)CO)n3C)cc2F)cc1 (stereo not shown) [Compound 97, 8-(3-fluoro-4-((4-methylbenzyl)oxy)phenyl)-3-(3-hydroxy-2-methylpropyl)-7-methyl-3,7-dihydro-1H-purine-2,6-dione] | 6.30 to 7.00 | 6.30 to 7.00 |  | 
9 | Cn1c(-c2ccc(OCc3ccc(C(F)F)cc3)c(F)c2)nc2c1c(=O)[nH]c(=O)n2CC(O)C(F)(F)F (stereo not shown) [Compound 18] |  |  | < 5.30 | 5.30 to 6.00
10 | CC(O)Cn1c(=O)[nH]c(=O)c2c1nc(-c1ccc(OCc3ccc(Cl)c(F)c3)c(F)c1)n2C (stereo not shown) [Compound 93, 8-(4-((4-chloro-3-fluorobenzyl)oxy)-3-fluorophenyl)-3-(2-hydroxypropyl)-7-methyl-3,7-dihydro-1H-purine-2,6-dione] | 5.30 to 6.00 | 6.00 to 6.30 |  | 
11 | COc1cc(-c2nc3c(c(=O)[nH]c(=O)n3CC(O)C(F)F)n2C)ccc1OCc1ccc(C(F)F)cc1 (stereo not shown) [Compound 79, 3-(3,3-difluoro-2-hydroxypropyl)-8-(4-((4-(difluoromethyl)benzyl)oxy)-3-methoxyphenyl)-7-methyl-3,7-dihydro-1H-purine-2,6-dione] | 6.30 to 7.00 | 6.30 to 7.00 |  | 
12 | CC(O)Cn1c(=O)[nH]c(=O)c2c1nc(-c1ccc(Oc3ccc(OC(F)(F)F)cc3)c(OC(F)(F)F)c1)n2C (stereo not shown) [Compound 156, 3-(2-hydroxypropyl)-7-methyl-8-(3-(trifluoromethoxy)-4-(4-(trifluoromethoxy)phenoxy)phenyl)-3,7-dihydro-1H-purine-2,6-dione] | 6.30 to 7.00 | 6.30 to 7.00 |  | 
13 | CC(O)Cn1c(=O)[nH]c(=O)c2c1nc(-c1ccc(Oc3ccc(OC(F)(F)F)cc3F)cc1)n2C (stereo not shown) [Compound 193, 8-(4-(2-fluoro-4-(trifluoromethoxy)phenoxy)phenyl)-3-(2-hydroxypropyl)-7-methyl-3,7-dihydro-1H-purine-2,6-dione] | 5.30 to 6.00 | 5.30 to 6.00 |  | 
14 | COc1cc(-c2nc3c(c(=O)[nH]c(=O)n3CC(C)O)n2C)ccc1Oc1ccc(OC(F)(F)F)cc1 (stereo not shown) [Compound 196, 3-(2-hydroxypropyl)-8-(3-methoxy-4-(4-(trifluoromethoxy)phenoxy)phenyl)-7-methyl-3,7-dihydro-1H-purine-2,6-dione] | 5.30 to 6.00 | 5.30 to 6.00 |  | 
15 | Cn1c(-c2ccc(Oc3ccc(Cl)cc3)c(Cl)c2)nc2c1c(=O)[nH]c(=O)n2CC(O)C(F)(F)F (stereo not shown) [Compound 153, 8-(3-chloro-4-(4-chlorophenoxy)phenyl)-7-methyl-3-(3,3,3-trifluoro-2-hydroxypropyl)-3,7-dihydro-1H-purine-2,6-dione] | 6.30 to 7.00 | 6.30 to 7.00 |  | 
16 | CC(O)Cn1c(=O)[nH]c(=O)c2c1nc(-c1ccc(OCc3ccccc3)c(OC(F)(F)F)c1)n2C (stereo not shown) [Compound 120, 8-(4-(benzyloxy)-3-(trifluoromethoxy)phenyl)-3-(2-hydroxypropyl)-7-methyl-3,7-dihydro-1H-purine-2,6-dione] | 6.30 to 7.00 | 6.30 to 7.00 |  | 
17 | CC(CO)Cn1c(=O)[nH]c(=O)c2c1nc(-c1ccc(Oc3ccc(OC(F)(F)F)cc3)cc1)n2C (stereo not shown) [Compound 100, 3-(3-hydroxy-2-methylpropyl)-7-methyl-8-(4-(4-(trifluoromethoxy)phenoxy)phenyl)-3,7-dihydro-1H-purine-2,6-dione] | 6.30 to 7.00 | 6.30 to 7.00 |  | 
18 | Cn1c(-c2ccc(Oc3ccc(OC(F)(F)F)cc3)c(F)c2)nc2c1c(=O)[nH]c(=O)n2CC(O)C(F)(F)F (stereo not shown) [Compound 167, 8-(3-fluoro-4-(4-(trifluoromethoxy)phenoxy)phenyl)-7-methyl-3-(3,3,3-trifluoro-2-hydroxypropyl)-3,7-dihydro-1H-purine-2,6-dione] | 6.30 to 7.00 | 6.30 to 7.00 |  | 
19 | CC(O)Cn1c(=O)[nH]c(=O)c2c1nc(-c1ccc(Oc3ccc4ccccc4c3)cc1)n2C (stereo not shown) [Compound 186, 3-(2-hydroxypropyl)-7-methyl-8-(4-(naphthalen-2-yloxy)phenyl)-3,7-dihydro-1H-purine-2,6-dione] | 6.30 to 7.00 | 6.30 to 7.00 |  | 
20 | CC(CO)Cn1c(=O)[nH]c(=O)c2c1nc(-c1ccc(Oc3ccc(Cl)cc3)c(Cl)c1)n2C (stereo not shown) [Compound 150, 8-(3-chloro-4-(4-chlorophenoxy)phenyl)-3-(3-hydroxy-2-methylpropyl)-7-methyl-3,7-dihydro-1H-purine-2,6-dione] | 6.00 to 6.30 | 6.30 to 7.00 |  | 
21 | Cc1cc(-c2nc3c(c(=O)[nH]c(=O)n3CC(C)O)n2C)ccc1OCc1ccccc1 (stereo not shown) [Compound 124, 8-(4-(benzyloxy)-3-methylphenyl)-3-(2-hydroxypropyl)-7-methyl-3,7-dihydro-1H-purine-2,6-dione] | 6.30 to 7.00 | 6.30 to 7.00 |  | 
22 | COc1cc(-c2nc3c(c(=O)[nH]c(=O)n3CC(C)O)n2C)ccc1OCc1ccc(C#N)cc1 (stereo not shown) [Compound 90, 4-((4-(3-(2-hydroxypropyl)-7-methyl-2,6-dioxo-2,3,6,7-tetrahydro-1H-purin-8-yl)-2-methoxyphenoxy)methyl)benzonitrile] | 6.30 to 7.00 | 6.00 to 6.30 |  | 
23 | CC(CO)Cn1c(=O)[nH]c(=O)c2c1nc(-c1ccc(Oc3ccc(OC(F)F)cc3)c(Cl)c1)n2C (stereo not shown) [Compound 151, 8-(3-chloro-4-(4-(difluoromethoxy)phenoxy)phenyl)-3-(3-hydroxy-2-methylpropyl)-7-methyl-3,7-dihydro-1H-purine-2,6-dione] | 6.30 to 7.00 | 6.30 to 7.00 |  | 
24 | CC(O)Cn1c(=O)[nH]c(=O)c2c1nc(-c1ccc(OCc3ccc(F)c(F)c3)c(F)c1)n2C (stereo not shown) [Compound 92, 8-(4-((3,4-difluorobenzyl)oxy)-3-fluorophenyl)-3-(2-hydroxypropyl)-7-methyl-3,7-dihydro-1H-purine-2,6-dione] | 5.30 to 6.00 | 5.30 to 6.00 |  | 
25 | CC(O)Cn1c(=O)[nH]c(=O)c2c1nc(-c1ccc(Oc3ccc(C(F)(F)F)cc3)cc1)n2C (stereo not shown) [Compound 136, 3-(2-hydroxypropyl)-7-methyl-8-(4-(4-(trifluoromethyl)phenoxy)phenyl)-3,7-dihydro-1H-purine-2,6-dione] | 5.30 to 6.00 | 5.30 to 6.00 |  | 
26 | CC(O)Cn1c(=O)[nH]c(=O)c2c1nc(-c1ccc(Oc3ccccc3)c(Cl)c1)n2C (stereo not shown) [Compound 141, 8-(3-chloro-4-phenoxyphenyl)-3-(2-hydroxypropyl)-7-methyl-3,7-dihydro-1H-purine-2,6-dione] | 5.30 to 6.00 | 5.30 to 6.00 |  | 
